The subject of series [1] is TSC-STB differentiation. The experiment in a line: TSC-STB system, overall evaluation of anti-aging effect. It is filed as cell-based, human. The settings on record: summary statement. On the procedure:
(§1) Same number of TSCs in robust growing state were seeded in STBM with/without a candidate agent in a black Polystyrene TC-treated 96-well Microplate pre-coated with 10 mg/ml Geltrex™ LDEV-Free Reduced Growth Factor Basement Membrane Matrix or Matrigel (1.5×10^4-2×10^4 cells per well). On each screening microplate, 3 wells of control (cells only with 0.5% DMSO in 100 μL STB growth medium) and 3 wells of positive control (some well-known anti-ageing agents in certain concentration) were included. The cells were cultured at 37° C. and 5% CO2 with saturating humidity and differentiated into mature STB in the medium for 6 days. Cell morphology was monitored daily under a microscope. The signal readouts of reporter molecules was assessed on day 2, day 4, and day 6. On day 6, cells in each well were fixed and stained with DAPI or Hoechst, and cell count and intensity (both reporter and nuclei) were assessed using high content microscopy to assess the agent's effects and cell viability. The agents, especially those that affect cell viability will also be tested at different concentrations and at different day during the STB differentiation process.
(§2) First, a known anti-aging drug Rapamycin was tested. TSCs in good growing state were seeded at 1.0×10^4-2×10^4 cells per well in a 24-well plate pre-coated with 10 mg/mL Geltrex™ LDEV-Free Reduced Growth Factor Basement Membrane Matrix or Matrigel. After 24 hours, 3 wells continued in TSCM; 3 wells switched to STBM+DMSO; 3 wells switched to STBM+Rapamycin (500 nM). The media was changed every 2-3 days. On day 6, β-hCG was measured by ELISA as described in Example 1. Expression of aging-related marker genes (e.g., CGA and CGB3) was measured by RT-qPCR as described in Example 1.

The test system of series [2] is TSCs differentiating towards STBs. The experiment in a line: Western blot of β-hCG during TSC-STB differentiation. The settings on record: at certain / different concentrations, FIG. 4I. It is filed as cell-based, human. The protocol:
Western blot: The proteins were extracted with RIPA lysis (thermofisher, Cat. 89901) and Pierce Protease Inhibitor Mini Tablets (thermofisher, Cat. A32953). Protein concentrations were measured with Pierce™ BCA Protein Assay Kits (thermofisher, Cat. 23227). Then samples with certain amount of NuPAGE™ LDS Sample Buffer (4×) (thermofisher, Cat. NP0008) were boiled at 70 degree for 10 min. Boiled samples were loaded with the same amount and separated in 12% polyacrylamide gels (Thermofisher Cat. NP0343BOX) and transferred to PVDF membranes using the Bio-Rad transblot turbo system according to the manufacturer's guidance. Images were developed by the ChemiDoc Imaging System and processed with ImageJ 1.47v. The following primary antibodies were used: anti-GAPDH (thermosfisher, Cat. AM4300, 1:10000 for western blot), anti-Ki67 (thermofisher, Cat. MA5-14520, 1:1000 for western blot, 1:200 for IF), anti-HERVK-gag (Austral Biologicals, Cat. HERM-1811-5, 1:200 for IF), anti-TRF1 (Abcam, Cat. ab 10579, 1:100 for IF), anti-ZO-1 (CST, Cat. 13663, 1:200 for IF), anti-CGB3 (Abcam, Cat. Ab131170, 1:200 for IF), anti-H3 (CST, Cat. 4499 1:2000 for western blot), anti-H3K9mc3 (Abcam, Cat. ab8898, 1:1000 for western blot), anti-E-cadherin (CST, Cat. 14472, 1:200 for IF), anti-p38 MAPK (thermofisher, Cat. 338700, 1:1000 for western blot), anti-LaminB1 (thermofisher, Cat. 702972, 1:1000 for western blot, 1:200 for IF), anti-p27 Kip1 (thermofisher, Cat. PA527188, 1:1000 for western blot), anti-Hp1 gamma (thermofisher, Cat. MA3054, 1:1000 for western blot, 1:300 for IF), anti-SIRT1 (CST, Cat. 8469S, 1:1000 for western blot), anti-SIRT6 (CST, Cat. 12486S, 1:1000 for western blot), anti-SIRT3 (thermofisher, Cat. MA514910, 1:1000 for western blot), anti-p53 (thermofisher, Cat. MA512557, 1:1000 for western blot, 1:200 for IF), anti-gammaH2AX (CST, Cat. 2577s, 1:1000 for western blot, 1:200 for IF), anti-IL-6 (thermofisher, Cat. MA523698, 1:50 for IF), anti-hCG (thermofisher, Cat. 14-6508-82, 1:1000 for western blot, 1:200 for IF). […]

Series [3] shares this test system. The experiment in a line: RT-qPCR of aging-related marker genes during TSC-STB differentiation. The settings on record: FIG. 4H. The class given is cell-based, human. The protocol: (§3) To generate the hTSC cell lines, the single cell suspension of hEPSCs were plated on a 6-well plate (1-2×10^3/well) pre-coated with 10 mg/mL Geltrex™ LDEV-Free Reduced Growth Factor Basement Membrane Matrix or Matrigel and cultured in human trophoblast stem cell medium (hTSCM) for 7-10 days. Then single colonies of the differentiated cells on the 6-well plate were picked and expanded. The expanded cell lines were validated with trophoblast markers and RNA-Seq analysis. The established TSC cell lines were maintained in the hTSCM medium and passaged at ratio 1:4-1:5 every 3-5 days. The hTSCM was DMEM/F12 based medium supported with: 110 μM β-mercaptoethanol, 0.2% FBS, 0.5% Penicillin-Streptomycin-Glutamine, 0.3% BSA, 1×ITS-X supplement, 50.0 μg/mL Vc, 50.0 ng/ml EGF, 2.0 μM CHIR99021, 0.5 μM A83-01, 1.0 μM SB431542, 0.8 μM VPA, and 5.0 μM Y27632. Established TSC cells were seeded at 1.0×10^5-2×10^5 cells per well in a six-well plate pre-coated with 10 mg/mL Geltrex™ LDEV-Free Reduced Growth Factor Basement Membrane Matrix or Matrigel, and were induced to differentiate into STBs after culturing in syncytiotrophoblasts medium (STBM) for around 6 days. The STBM comprises: DMEM/F12 supplemented with 110 μM β-mercaptoethanol, 0.5% Penicillin-Streptomycin, 0.3% BSA, 1×ITS-X, 2.5 μM Y27632, 2 μM Forskolin, and 4% KnockOut Serum Replacement. The cells became early syncytiotrophoblasts on day 2-3, and mature syncytiotrophoblasts around day 6.
RT-qPCR: Total RNA was extracted using RNeasy Mini Kit (Qiagen) per manufacturer specification. Extracted RNA was then reverse transcribed to cDNA using Fastking gDNA diselling RT SuperMix (Tiangen). Gene expression was measured using PowerUp™ SYBR™ Green Master Mix (Applied Biosystems) and StepOnePlus™ Real-Time PCR (Applied Biosystems) with the primers listed in Table E1A. Raw gene expression data was normalized to GAPDH by using the ΔCt method. Statistical analysis was carried out using either one/two-tailed student's t-test in Prism 8 (GraphPad).
as §2
For orientation: Quantitative PCR measures a nucleic acid by following its amplification.

Series [4] has the same test system. The experiment in a line: Cell morphology, viability and proliferation during TSC-STB differentiation. The settings on record: for morphology: appearance of multinucleated STB cells: treated cells during TSC-STB differentiation, FIG. 4E. It is filed as cell-based, human. The protocol: as §3, §1, §2
Series [5] shares this test system. The experiment in a line: ELISA of secreted β-hCG during TSC-STB differentiation. It is filed as cell-based, human. To be noted: compared to the DMSO control group; FIG. 4F. The protocol: as §3, with “The STBM comprises: DMEM/F12 supplemented with 110 μM β-mercaptoethanol, 0.5% Penicillin-Streptomycin, 0.3% BSA, 1×ITS-X, 2.5 μM Y27632, 2 μM Forskolin, and 4% KnockOut Serum Replacement. The cells became early syncytiotrophoblasts on day 2-3, and mature syncytiotrophoblasts around day 6.” left out
First, a known anti-aging drug Rapamycin was tested. […] On day 6, β-hCG was measured by ELISA as described in Example 1. Expression of aging-related marker genes (e.g., CGA and CGB3) was measured by RT-qPCR as described in Example 1.
In general terms: An ELISA detects its analyte on a solid surface through an enzyme-linked reagent.

In series [6] the test system is model organisms. To be noted: yeast, worms, flies, male mice; background; cited from earlier work.
For series [7] the following is noted: background; cited from earlier work.

“Also recorded” adds a separate entry of the source.

Take `O=c1c(O)c(-c2ccc(O)c(O)c2)oc2cc(O)ccc12` [Fisetin]: the “anti-aging effect in the TSC-STB system” value in series [1] was “showed anti-aging effects as expected”. For the same compound, the “β-hCG expression (Western blot)” value in series [2] is recorded as “reduced”; in series [2] (listed as Fisctin) it was “significantly reduce”. Besides, the values for the CGA expression result in series [3] (1 μM) and in series [3] (10 μM) were “reduced” and “increasing”, respectively.
`CC(C)C[C@H](NC(=O)OCc1ccccc1)C(=O)N[C@@H](C[C@@H]1CCNC1=O)C(O)S(=O)(=O)[O-].[Na+]` (some centres unmarked) [GC376]: in series [4], the “morphology: appearance of multinucleated STB cells” value (shortened to “morphology: appearance”) is “delayed appearance of multinucleated STB cells”.
As to `CC(C)n1nc(-c2ccc3oc(N)nc3c2)c2c(N)ncnc21` [INK128], the “secreted β-hCG level (ELISA)” value in series [5] is listed as “significantly lower”. Besides, the “β-hCG expression (Western blot)” value in series [2] was “significantly reduce; also recorded: reduced”. The “morphology: appearance” value in series [4] is given as “delayed appearance of multinucleated STB cells”.
Regarding `CC(C)C(=O)OC[C@H]1O[C@@H](n2ccc(NO)nc2=O)[C@H](O)[C@@H]1O` [Molnupiravir], the “morphology: appearance” value in series [4] was “delayed appearance of multinucleated STB cells”.
As for `NC(=O)c1ccc[n+]([C@@H]2O[C@H](COP(=O)([O-])O)[C@@H](O)[C@H]2O)c1` [NMN, Nicotinamide mononucleotide], in series [1], the “anti-aging effect in the TSC-STB system” value is listed as “showed anti-aging effects as expected”. Moreover, the results for the CGA expression entry in series [3] (1 μM) and in series [3] (10 μM) were “reduced” and “increasing”, respectively.
For `O=c1c(O)c(-c2ccc(O)c(O)c2)oc2cc(O)cc(O)c12` [Quercetin], in that order: “showed anti-aging effects as expected”, “decrease” and “decrease”.
On to `CO[C@H]1C[C@@H]2CC[C@@H](C)[C@@](O)(O2)C(=O)C(=O)N2CCCC[C@H]2C(=O)O[C@H]([C@H](C)C[C@@H]2CC[C@@H](O)[C@H](OC)C2)CC(=O)[C@H](C)/C=C(\C)[C@@H](O)[C@@H](OC)C(=O)[C@H](C)C[C@H](C)/C=C/C=C/C=C/1C` [Rapamycin], for which the “cell viability or proliferation” value in series [4] (500 nM, FIG. 4A) was “did not affect”.
As to `NCCCCNCCCN` [Spermdine], the CGA expression result in series [3] (1 μM) and in series [3] (10 μM) was “decrease” throughout.
On to `CC(=O)Oc1ccccc1C(=O)O` [aspirin], for which the “lifespan in some model organisms” value in series [6] is “extend lifespan”. Besides, in series [7], the “side effects in humans” value is “increase the risk of gastrointestinal bleeding”.
Turning to `Cc1ccc(-c2cc(C(F)(F)F)nn2-c2ccc(S(N)(=O)=O)cc2)cc1` [celecoxib], the “side effects in humans” value in series [7] was “major bleeding events and increase in all-cause mortality”.
Take `CC(C)Cc1ccc(C(C)C(=O)O)cc1` (centres unmarked) [ibuprofen]: in series [6], the “lifespan in some model organisms” value is listed as “extend lifespan”. In addition, the “side effects in humans” value in series [7] is “major bleeding events and increase in all-cause mortality”.
For `CN(C)C(=N)N=C(N)N` [metformin], in series [1], the “anti-aging effect in the TSC-STB system” value is listed as “showed anti-aging effects as expected”.
As to STM2457, the “morphology: appearance” value in series [4] was “delayed appearance of multinucleated STB cells”.

Source of the values: patent US20260146991A1, “COMPOSITION AND METHODS OF AGING-RELATED AGENT SCREENING AND TARGET ANALYSIS” (Centre for Translational Stem Cell Biology Limited, priority 2022, published 2026).
